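Where inhibition never reached the appropriate level, the endpoint shown equals the highest concentration tested. Otherwise, values were interpolated linearly from a five-concentration, 48-hour dose response in 96-well plates. At the GI50, growth is halved. Definition used: TGI = concentration required for complete inhibition of growth.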
Legend:
Test in all cases: DTP human tumour cell line panel, 48 h
HCT-15 colon = tested on: HCT-15 colon
ACHN renal = tested on: ACHN renal
MALME-3M melanoma = tested on: MALME-3M melanoma
TK-10 renal = tested on: TK-10 renal
OVCAR-5 ovarian = tested on: OVCAR-5 ovarian
SK-MEL-28 melanoma = tested on: SK-MEL-28 melanoma
M14 melanoma = tested on: M14 melanoma
HOP-92 NSCLC = tested on: HOP-92 NSCLC
NCI-H226 lung = tested on: NCI-H226 lung
BT-549 breast = tested on: BT-549 breast

Structure (SMILES) | TGI (HCT-15 colon) | TGI (ACHN renal) | TGI (MALME-3M melanoma) | TGI (TK-10 renal) | TGI (OVCAR-5 ovarian) | TGI (SK-MEL-28 melanoma) | TGI (M14 melanoma) | TGI (HOP-92 NSCLC) | TGI (NCI-H226 lung) | TGI (BT-549 breast) | GI50 (HCT-15 colon) | GI50 (HOP-92 NSCLC) | GI50 (ACHN renal) | GI50 (BT-549 breast) | GI50 (MALME-3M melanoma) | GI50 (TK-10 renal) | GI50 (OVCAR-5 ovarian) | GI50 (SK-MEL-28 melanoma) | GI50 (M14 melanoma) | GI50 (NCI-H226 lung)
N#CCC(=O)N1CCCCCCC1 | 30.5 µM | > 100 µM | > 100 µM | > 100 µM | > 100 µM | > 100 µM | > 100 µM |  |  |  |  |  |  |  |  |  |  |  |  | 
O=c1oc2ccccc2c(O)c1C(C/C(CCN1CCCC1)=N\Nc1ccccc1)c1ccccc1 (stereo not given) | > 100 µM | > 100 µM | > 100 µM | > 100 µM | > 100 µM |  | > 100 µM | 83.6 µM | > 100 µM |  |  |  |  |  |  |  |  |  |  | 
O=C(O)/C(=C\c1ccncc1)c1cccc2ccccc12 | > 100 µM |  | > 100 µM | > 100 µM | > 100 µM | > 100 µM | > 100 µM | > 100 µM |  | > 100 µM |  |  |  |  |  |  |  |  |  | 
NNC(=O)C(=O)N/N=C(\CCC(=O)Nc1ccc(Cl)cc1)Cc1nc2ccccc2s1 | > 100 µM | > 100 µM | > 100 µM | > 100 µM | > 100 µM | > 100 µM | 66.5 µM | > 100 µM | > 100 µM |  |  |  |  |  |  |  |  |  |  | 
O=NN(CCCl)C(=O)NC1CCC(CC2CCC(NC(=O)N(CCCl)N=O)CC2)CC1 (stereo not given) | > 76.9 µM | > 100 µM | > 70.4 µM | > 100 µM | > 100 µM | > 100 µM | > 100 µM | > 76.6 µM | > 100 µM |  |  |  |  |  |  |  |  |  |  | 
O=C(CCc1ccc(O)cc1)N/N=C/c1cc(Br)ccc1O | > 100 µM | > 100 µM | 28.3 µM | > 100 µM | > 100 µM | > 100 µM | 17.4 µM | 49.3 µM |  | 44.8 µM | 2 µM | 4.9 µM | 3.33 µM | 4.19 µM | 4.01 µM | 7.35 µM | 6.77 µM | 5.72 µM | 2.75 µM | 
COC(=O)c1nn(C(=N)c2ccc(Cl)cc2)c2c1CCC2 | > 100 µM | > 100 µM | > 100 µM | > 100 µM | > 100 µM | > 100 µM | > 100 µM | > 100 µM | > 100 µM |  |  |  |  |  |  |  |  |  |  | 
CN1C/C(=C\C=C\c2ccccc2)C(=O)/C(=C/C=C/c2ccccc2)C1 | > 100 µM | > 100 µM | > 100 µM | > 100 µM | > 100 µM | > 100 µM | > 100 µM |  | > 100 µM |  |  |  |  |  |  |  |  |  |  | 
CCN(CC)CC(=N)N(CC)c1ccccc1 | > 100 µM | > 100 µM | > 100 µM | > 100 µM | > 100 µM | > 100 µM | > 100 µM | > 100 µM | > 100 µM |  |  |  |  |  |  |  |  |  |  | 
COc1ccc(N2C(=O)C3c4[nH]c5ccccc5c4C4CCCCC4C3C2=O)cc1 (stereo not given) | > 100 µM | > 100 µM | 25.8 µM | 58.8 µM | > 100 µM | 42.4 µM | > 100 µM | 50.3 µM | > 100 µM |  |  |  |  |  |  |  |  |  |  | 
[N-]=[N+]=C(C(=O)N1CCCC1=O)S(=O)(=O)c1ccccc1 | > 100 µM | > 100 µM | > 100 µM | > 100 µM |  | > 100 µM | > 100 µM |  |  | > 100 µM |  |  |  |  |  |  |  |  |  | 
CC(C)=CC(=O)Cc1nc2ccc([N+](=O)[O-])cc2[nH]c1=O | > 100 µM | > 100 µM | > 100 µM | > 100 µM | > 100 µM | > 100 µM | > 100 µM | > 100 µM | > 100 µM |  |  |  |  |  |  |  |  |  |  | 
O=C(/C=C\c1cccc2ccccc12)c1cccc2ccccc12 | 19.6 µM | 24.1 µM | 36.1 µM |  |  | 20.5 µM | 26 µM |  | 25 µM |  |  |  |  |  |  |  |  |  |  | 12.2 µM
C[C@]12CCC(=O)C=C1CC[C@@H]1C2CC[C@]2(C)c3nn(-c4ccccc4)nc3CC12 (stereo not given in full) | > 100 µM | > 100 µM | > 100 µM | > 100 µM | > 100 µM | > 100 µM | > 100 µM | > 100 µM | > 100 µM |  |  |  |  |  |  |  |  |  |  | 
O=C1c2ccccc2C(=O)c2[nH]c(Cc3ccc(F)cc3)nc21 | 21.6 µM | 31.2 µM | 29.6 µM | 53.1 µM |  | 35 µM | 30.2 µM | 74.6 µM | 45.9 µM |  |  |  |  |  |  |  |  |  |  | 
CCCCCn1c(C)cc(/C=C\c2ccc3cc(C)ccc3[n+]2C)c1C | 1.9 µM | 1.15 µM |  | 0.89 µM | 1.41 µM | 1.71 µM | 1.38 µM | 0.487 µM |  | 0.664 µM | 0.49 µM | 0.109 µM | 0.239 µM | 0.0699 µM |  | 0.157 µM | 0.313 µM | 0.339 µM | 0.253 µM | 

Structure (SMILES) | TGI (HCT-15 colon) | TGI (ACHN renal) | TGI (MALME-3M melanoma) | TGI (TK-10 renal) | TGI (OVCAR-5 ovarian) | TGI (SK-MEL-28 melanoma) | TGI (M14 melanoma) | TGI (HOP-92 NSCLC) | TGI (NCI-H226 lung) | TGI (BT-549 breast) | GI50 (HCT-15 colon) | GI50 (HOP-92 NSCLC) | GI50 (ACHN renal) | GI50 (BT-549 breast) | GI50 (MALME-3M melanoma) | GI50 (TK-10 renal) | GI50 (OVCAR-5 ovarian) | GI50 (SK-MEL-28 melanoma) | GI50 (M14 melanoma) | GI50 (NCI-H226 lung)
N.N.O=P([O-])([O-])C1(P(=O)([O-])[O-])CCCCCN1.[Pt+2] | > 100 µM | > 100 µM | > 100 µM | > 100 µM |  | > 100 µM | > 100 µM | > 100 µM | > 100 µM |  | > 100 µM | > 100 µM | > 100 µM |  | > 100 µM | > 100 µM |  | > 100 µM | > 100 µM | > 100 µM
CN(C)C(=O)Oc1c(-c2ccccc2)c(=O)n2c3ccccc3n3c(=O)n(C)c(=O)c1c23 | > 100 µM | > 100 µM | > 100 µM | > 100 µM | > 100 µM | > 100 µM | > 100 µM | > 100 µM |  |  |  |  |  |  |  |  |  |  |  | 
O=S1Nc2c(Cl)cc(Cl)c(Cl)c2S1 (stereo not given) | > 100 µM | > 100 µM | > 100 µM | > 100 µM | > 100 µM | > 100 µM | > 100 µM | > 100 µM | > 100 µM |  |  |  |  |  |  |  |  |  |  | 
CCN(CC)CCNC(=O)c1cccc2nc3ccccc3nc12 | 41.8 µM | > 100 µM | 24.6 µM | > 100 µM | 41.6 µM | 34.3 µM | > 48.7 µM | > 73.4 µM | 34.2 µM |  |  |  |  |  |  |  |  |  |  | 
O=C1NCCS(=O)(=O)N2CCC[C@@H]12 | > 100 µM | > 100 µM | > 100 µM | > 100 µM | > 100 µM | > 100 µM | > 100 µM | > 100 µM | > 100 µM |  |  |  |  |  |  |  |  |  |  | 
C/C=N\N1C(=O)c2ccccc2C1=O | > 100 µM | > 100 µM | > 100 µM | > 100 µM | > 100 µM | > 100 µM | > 100 µM | > 100 µM | > 100 µM |  |  |  |  |  |  |  |  |  |  | 
O=C(NC(=O)c1ccccc1[N+](=O)[O-])Nc1ccc(Oc2ncc(Cl)cn2)c(C(F)(F)F)c1 | > 38.1 µM | 32.1 µM | > 100 µM | > 100 µM | 80.4 µM | > 4.64 µM | 39.4 µM | 3.24 µM | 1.39 µM |  |  |  |  |  |  |  |  |  |  | 
O=C(/C=C\c1ccccc1)N1CCc2ccccc2C1 | > 100 µM | > 100 µM |  | > 100 µM |  | > 100 µM | > 100 µM | > 100 µM | > 100 µM |  |  |  |  |  |  |  |  |  |  | 
Cc1ccc([C@]2(C)CC[C@H](C)/C2=C\Br)c(O)c1 | 33.7 µM | 26.1 µM | 14.1 µM | 14.1 µM | 18.6 µM | 17.6 µM | 13.3 µM | 25.2 µM |  | 19.3 µM | 4.99 µM | 10.4 µM | 7.5 µM | 5.4 µM | 3.88 µM | 3.35 µM | 6.3 µM | 5.07 µM | 3.51 µM | 
Cc1cccc2c(O)cc(=O)oc12 |  | > 100 µM | > 100 µM | > 100 µM | > 100 µM | > 100 µM | > 100 µM |  | > 100 µM |  |  |  |  |  |  |  |  |  |  | 
CC1(C)CC(N(C(=O)/C=C/c2ccc([N+](=O)[O-])o2)C2CCCCC2)CC(C)(C)N1 | 20.2 µM | 25.4 µM |  | 35.8 µM | 38.4 µM | 25.1 µM | 9.54 µM | 14.8 µM |  |  |  |  |  |  |  |  |  |  |  | 
O=C(CC/C(CC(=O)c1ccc(Br)cc1)=N\O)Nc1ccc(Cl)c(Cl)c1 | > 100 µM | > 100 µM | > 100 µM | > 100 µM | > 100 µM | > 100 µM | > 100 µM | > 100 µM | > 100 µM |  |  |  |  |  |  |  |  |  |  | 
Cn1c(=O)c2/c(n(C)c1=O)=N\C=c1\c(=O)n(C)c(=O)n(C)\c1=N\C=2 | > 100 µM | > 100 µM | > 100 µM | > 100 µM | > 100 µM | > 100 µM | > 100 µM | > 100 µM |  |  |  |  |  |  |  |  |  |  |  | 
CC(=O)[CH-]C(C)=O.CC(=O)[CH-]C(C)=O.CC[O-].CC[O-].[Ti+4] | > 100 µM | > 100 µM | > 100 µM | > 100 µM | > 100 µM | > 100 µM | > 100 µM | > 100 µM | > 100 µM |  | > 100 µM | > 100 µM | > 100 µM |  | > 100 µM | > 100 µM | > 100 µM | > 100 µM | > 100 µM | > 100 µM
OCCN1CCN(CC/C=C2/c3ccccc3Sc3ccc(Cl)cc32)CC1 | 26.2 µM | 29.7 µM | 13.1 µM | 28.8 µM | 30.9 µM | 3.38 µM | 6.24 µM | 20.9 µM | 28.2 µM |  |  |  |  |  |  |  |  |  |  | 
CC(=O)[O-].O=C([CH-]C(=O)c1ccccc1)c1ccccc1.O=C([CH-]C(=O)c1ccccc1)c1ccccc1.[Sm+3] | 22.5 µM | 25.3 µM | 34 µM | 48.7 µM | 63.1 µM | 37.8 µM | 17.5 µM | 19.6 µM | 9.69 µM |  | 5.5 µM | 4.96 µM | 4.96 µM |  | 4.08 µM | 6.41 µM | 21.4 µM | 5.87 µM | 4.55 µM | 1.52 µM

Source: PubChem BioAssay (NCI)
